According to article PMC7402352, “Discovery of Novel Non-Steroidal Cytochrome P450 17A1 Inhibitors as Potential Prostate Cancer Agents” (International Journal of Molecular Sciences, 2020):
Values joined by “and” are separate entries in the source; they are usually repeats but may differ in a detail not shown here. Equal values may be shown once. “Also recorded” adds a separate entry of the source. Read-outs that look alike come from different tables or passages of the source. One block for each compound: values may come before it.

Key:
[1] = target: T1, human cytochrome P450 17A1 (Homo sapiens, UniProt P05093); assay: Spectral binding assay (CYP17A1 ligand binding); conditions: purified recombinant human CYP17A1, spectral titration
T1 construct: made in house
T1 sequence (P05093 1-508): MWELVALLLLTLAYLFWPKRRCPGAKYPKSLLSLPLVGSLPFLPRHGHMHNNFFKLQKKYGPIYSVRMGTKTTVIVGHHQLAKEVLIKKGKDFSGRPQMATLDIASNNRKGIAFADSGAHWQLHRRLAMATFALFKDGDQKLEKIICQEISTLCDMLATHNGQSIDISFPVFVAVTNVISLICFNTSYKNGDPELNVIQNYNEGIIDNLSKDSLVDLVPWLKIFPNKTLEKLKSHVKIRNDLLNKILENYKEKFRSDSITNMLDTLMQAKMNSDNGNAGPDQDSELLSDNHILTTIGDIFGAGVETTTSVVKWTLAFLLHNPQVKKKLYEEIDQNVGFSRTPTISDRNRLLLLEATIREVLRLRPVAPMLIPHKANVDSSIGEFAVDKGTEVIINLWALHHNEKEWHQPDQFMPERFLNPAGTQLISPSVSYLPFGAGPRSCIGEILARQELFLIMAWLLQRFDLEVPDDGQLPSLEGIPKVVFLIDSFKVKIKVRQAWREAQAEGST
From the text: The target compounds were initially tested for binding mode and affinity for CYP17A1 using a spectral binding assay. This assay can distinguish the mode of interaction, with a blue shift of the Soret absorbance occurring when ligand displaces water from the heme iron to generate a five-coordinate iron without direct coordination to the heme iron (type I, similar to most substrates) or a red shift of the Soret peak when the ligand nitrogen replaces the water to directly interact with the six-coordinate iron (type II, similar to many inhibitors). […] This 3-pyridyl fragment is also found in abiraterone.
Initial ligand binding was evaluated by measuring absorbance changes in CYP17A1 upon addition of ligands. Purified recombinant human cytochrome P450 17A1 enzyme (1 µM) in buffer (25 mM potassium phosphate, pH 7.4, 200 mM NaCl, 20% glycerol) was titrated with ligands. Ligands were dissolved in DMSO and added to three concentrations (500, 1000, and 2000 nM). The spectral intensity difference (ΔA) was measured as difference between […]. The Amin was typically at ~410 nm and Amax at ~440 nm for the type II changes observed for these ligands.
S2. Binding spectra and CYP IC50 curves
Difference spectrum of cytochrome P450 17A1 with vs. without compound 1a (2 µM).
All compounds are type II and display the same shift as the example above.
(§1) (1 picture or pasted object on this page, not shown here)

human CYP17A1 [2] = target: T2, human CYP17A1 (Homo sapiens, UniProt P05093); assay: Cytochrome P450 17A1 progesterone 17α-hydroxylation inhibition assay; format: biochemical; conditions: recombinant purified CYP17A1
T2 construct: made in house
T2 sequence (P05093 24-508 limits assumed): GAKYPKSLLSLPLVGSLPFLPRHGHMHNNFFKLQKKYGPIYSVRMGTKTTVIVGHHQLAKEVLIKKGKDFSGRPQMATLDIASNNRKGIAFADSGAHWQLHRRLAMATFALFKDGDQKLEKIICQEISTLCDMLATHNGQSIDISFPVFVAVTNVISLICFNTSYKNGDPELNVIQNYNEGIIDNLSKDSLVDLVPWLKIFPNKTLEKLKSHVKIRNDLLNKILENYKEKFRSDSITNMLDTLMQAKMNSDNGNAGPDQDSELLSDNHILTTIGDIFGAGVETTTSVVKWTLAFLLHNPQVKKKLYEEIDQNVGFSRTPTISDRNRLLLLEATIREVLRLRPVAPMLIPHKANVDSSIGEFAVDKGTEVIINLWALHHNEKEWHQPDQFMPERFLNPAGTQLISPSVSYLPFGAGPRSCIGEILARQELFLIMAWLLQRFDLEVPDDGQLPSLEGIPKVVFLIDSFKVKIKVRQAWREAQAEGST
Experimental: Regardless of their binding affinity, all compounds were tested for their ability to inhibit progesterone 17α-hydroxylation by recombinant purified CYP17A1 (Supplementary Materials S2).
Purified recombinant human CYP17A1 (20 pmol) and human full-length cytochrome P450 reductase (80 pmol) were used to convert progesterone (purchased from Acros Organics, Fair Lawn, NJ, USA) (6 µM) to 17α-hydroxyprogesterone. Test inhibitors were dissolved in DMSO and initially tested in concentrations ranging from 1.3 to 41 µM. In subsequent assays the range of inhibitor concentrations was optimized to best define the IC50 of individual compounds. Reactions were run and the 17α -hydroxyprogesterone product measured by LC-MS as previously published.
IC50 curves for compounds inhibiting CYP17A1 progesterone 17-hydroxylation (black circles),
CYP21A2 progesterone 21-hydroxylation (red diamonds), CYP3A4 nifedipine metabolism
(green squares), and CYP2D6 quinidine metabolism (blue triangles).
as §1

PC3 cells = assay: Prostate cancer cell line proliferation screening (GR), PC3; format: cell-based, human; conditions: 10 µM, 48 h
Experimental: Next, we tested the effect of compounds 1a–1e on prostate cancer derived cell lines. The anti-proliferative activity was determined in vitro by adding 10 µM compound to each of three prostate cancer cell lines (LNCaP, DU145, and PC3). As an additional comparison, immortalized non-cancerous fibroblasts (BJ hTERT) were used. These cancer cell lines are considered the classic standard of PCa cell culture. Since these cell lines grew at very different rates, inhibition of growth rate (GR) was used as a metric. All compounds except 1e were non-toxic to non-cancerous cells. Compounds 1a and 1c were both cytotoxic in the PC3 cell line (Figure 3). […] DU145 cells were weakly affected by only compound 1e with growth rate inhibition more than 50% (GR < 0.5). […] We observed substantial susceptibility of PC3 cells in comparison to DU145 (see Supplementary Materials S3 for GR50 in PC3 cells). These two cell lines are similar in many respects. […] However, they differ in their origins, PC3 being derived from a lumbar vertebral metastatic prostate tumour and DU145 from a brain metastatic prostate tumour. […] By observing a uniform response of all cell lines used in the present study to 5-fluorouracil (5-FU), we were able to rule out any general cell dependent variability in chemosensitivity towards anti-metabolite treatment. Still, chemoresistance in PC3 and DU145 may be mediated by other mechanisms. While AR also functions as a tumour suppressor inhibiting cell proliferation, it is possible in AR deprived cells to observe growth inhibition when cells retain necessary coregulators. […]
(§2) Cells were grown to approximately 80% confluence in 150 mm culture dishes and harvested by 0.25% Trypsin/EDTA (Gibco) treatment. Released cells were counted and seeded in 384 well plates (Falcon, ref. 353962) in 30 µl media with a cell count of 1500 (BJ cells, PC-3) or and 3500 (LNCaP (Lund)) cells per well. […] The cells incubated for 24 h, after which cell counts in wells of one 384-well plate were determined as described below (time zero). […]

CYP2D6 = target: T3, CYP2D6 (Homo sapiens, UniProt P10635); assay: CYP2D6 dextromethorphan metabolism inhibition assay; format: biochemical; conditions: for IC50: dextromethorphan metabolism
T3 construct: made in house
From the text: (§3) In human drug metabolism, CYP3A4 and CYP2D6 are dominant enzymes and undesired inhibition could potentially alter the pharmacokinetics and reduce the clearance of co-administered drugs. CYP3A4 is particularly important in this respect, with a large and flexible active site able to accommodate many different molecular scaffolds including steroids. […] The most similar steroidogenic human enzyme to CYP17A1 is CYP21A2, which also uses progesterone as a substrate, in this case to form 21-hydroxyprogesterone. Undesired inhibition of this enzyme could adversely impact the biosynthesis of the corticosteroids cortisol and aldosterone which control stress/immune responses and blood pressure, respectively. Abiraterone itself has this liability and is thus co-administered with the synthetic corticosteroid prednisone. […] However, at the same time it might be possible to achieve similar results by altering the nitrogen atom position in the pyridine fragment in compound 1e. Further optimization of 1c is required to eliminate off-target effects on the steroidogenic human CYP21A2 enzyme to prevent disruption of glucocorticoid and mineralocorticoid biosynthesis in vivo. This might be achieved by adding substituents compatible with the CYP17A1 active site topography forming interactions with the bordering Arg239 and/or Asp298 residues, but incompatible with the more spatially constrained CYP21A2 active site, as has been accomplished for abiraterone.
(§4) Selected inhibitors were tested for off-target inhibition of purified recombinant human CYP3A4 nifedipine metabolism and CYP2D6 dextromethorphan metabolism as described with minor modifications. CYP3A4 nifedipine (purchased from Sigma-Aldrich, St. Louis, MO, USA) activity assays were carried out with 200 µM nifedipine for 30 min. The CYP2D6 dextrometorphan (purchased from Sigma-Aldrich, St. Louis, MO, USA) assays were carried out with 100 µM DXM. Inhibition of steroidogenic cytochrome P450 21A2 progesterone 21-hydroxylation was evaluated as reported.
(§5) IC50 curves for compounds inhibiting CYP17A1 progesterone 17-hydroxylation (black circles), […]

human CYP3A4 = target: T4, human CYP3A4 (Homo sapiens, UniProt P08684); assay: CYP3A4 nifedipine metabolism inhibition assay; format: biochemical; conditions: concentrations up to 10 µM
T4 construct: made in house
From the text: as §3, with “Further optimization of 1c is required to eliminate off-target effects on the steroidogenic human CYP21A2 enzyme to prevent disruption of glucocorticoid and mineralocorticoid biosynthesis in vivo. This might be achieved by adding substituents compatible with the CYP17A1 active site topography forming interactions with the bordering Arg239 and/or Asp298 residues, but incompatible with the more spatially constrained CYP21A2 active site, as has been accomplished for abiraterone.” left out
Selected inhibitors were tested for off-target inhibition of purified recombinant human CYP3A4 nifedipine metabolism and CYP2D6 dextromethorphan metabolism as described with minor modifications. […] Inhibition of steroidogenic cytochrome P450 21A2 progesterone 21-hydroxylation was evaluated as reported. […]

DU145 cells = assay: Prostate cancer cell line proliferation screening (GR), DU145; format: cell-based, human
Experimental: (§6) Next, we tested the effect of compounds 1a–1e on prostate cancer derived cell lines. The anti-proliferative activity was determined in vitro by adding 10 µM compound to each of three prostate cancer cell lines (LNCaP, DU145, and PC3). As an additional comparison, immortalized non-cancerous fibroblasts (BJ hTERT) were used. These cancer cell lines are considered the classic standard of PCa cell culture. Since these cell lines grew at very different rates, inhibition of growth rate (GR) was used as a metric. All compounds except 1e were non-toxic to non-cancerous cells. Compounds 1a and 1c were both cytotoxic in the PC3 cell line (Figure 3). […] DU145 cells were weakly affected by only compound 1e with growth rate inhibition more than 50% (GR < 0.5). […] We observed substantial susceptibility of PC3 cells in comparison to DU145 (see Supplementary Materials S3 for GR50 in PC3 cells). These two cell lines are similar in many respects. […]
as §2

cytochrome P450 21A2 = target: T5, cytochrome P450 21A2 (Homo sapiens, UniProt P08686); assay: CYP21A2 progesterone 21-hydroxylation inhibition assay; format: biochemical; conditions: for IC50: progesterone 21-hydroxylation
T5 construct: made in house
T5 sequence (P08686 1-495): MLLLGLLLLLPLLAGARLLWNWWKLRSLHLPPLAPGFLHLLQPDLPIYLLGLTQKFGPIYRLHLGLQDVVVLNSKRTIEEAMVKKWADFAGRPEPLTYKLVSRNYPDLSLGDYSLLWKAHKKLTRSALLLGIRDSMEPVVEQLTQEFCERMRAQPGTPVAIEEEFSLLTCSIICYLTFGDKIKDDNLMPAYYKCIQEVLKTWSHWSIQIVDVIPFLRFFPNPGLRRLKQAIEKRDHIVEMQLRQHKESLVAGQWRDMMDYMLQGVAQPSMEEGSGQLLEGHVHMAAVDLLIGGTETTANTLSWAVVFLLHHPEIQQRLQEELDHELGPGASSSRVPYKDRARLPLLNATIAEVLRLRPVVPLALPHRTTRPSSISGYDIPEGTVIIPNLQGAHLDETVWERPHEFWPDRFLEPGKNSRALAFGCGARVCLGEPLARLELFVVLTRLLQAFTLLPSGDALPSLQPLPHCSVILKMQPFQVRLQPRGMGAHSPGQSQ
From the text: as §3, §4, §5

human CYP17A1 [3] = target: T2, human CYP17A1; design: method as in PMID 28373265; conditions: ref [11]; cited from earlier work
[4] = target: T1, human cytochrome P450 17A1; conditions: ref [10]; read-out: CYP17A1 Kd; cited from earlier work
BJ hTERT fibroblasts = assay: Proliferation screening in non-cancerous fibroblasts; format: cell-based; conditions: 10 µM, 48 h
Experimental: as §6, §2

T3 sequence (P10635 whole entry): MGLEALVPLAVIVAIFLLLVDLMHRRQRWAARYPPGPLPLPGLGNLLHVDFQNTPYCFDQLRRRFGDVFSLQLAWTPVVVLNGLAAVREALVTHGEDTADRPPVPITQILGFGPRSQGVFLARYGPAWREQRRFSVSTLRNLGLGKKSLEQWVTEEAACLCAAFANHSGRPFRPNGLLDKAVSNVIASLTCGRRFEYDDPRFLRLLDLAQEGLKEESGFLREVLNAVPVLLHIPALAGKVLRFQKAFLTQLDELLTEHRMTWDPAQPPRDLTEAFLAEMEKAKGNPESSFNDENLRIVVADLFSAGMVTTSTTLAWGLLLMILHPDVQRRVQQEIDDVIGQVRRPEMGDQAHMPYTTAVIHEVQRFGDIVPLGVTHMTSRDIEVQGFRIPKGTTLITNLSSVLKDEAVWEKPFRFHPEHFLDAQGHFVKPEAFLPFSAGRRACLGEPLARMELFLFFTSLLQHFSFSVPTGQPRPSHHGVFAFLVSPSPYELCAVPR
T4 sequence (P08684 whole entry): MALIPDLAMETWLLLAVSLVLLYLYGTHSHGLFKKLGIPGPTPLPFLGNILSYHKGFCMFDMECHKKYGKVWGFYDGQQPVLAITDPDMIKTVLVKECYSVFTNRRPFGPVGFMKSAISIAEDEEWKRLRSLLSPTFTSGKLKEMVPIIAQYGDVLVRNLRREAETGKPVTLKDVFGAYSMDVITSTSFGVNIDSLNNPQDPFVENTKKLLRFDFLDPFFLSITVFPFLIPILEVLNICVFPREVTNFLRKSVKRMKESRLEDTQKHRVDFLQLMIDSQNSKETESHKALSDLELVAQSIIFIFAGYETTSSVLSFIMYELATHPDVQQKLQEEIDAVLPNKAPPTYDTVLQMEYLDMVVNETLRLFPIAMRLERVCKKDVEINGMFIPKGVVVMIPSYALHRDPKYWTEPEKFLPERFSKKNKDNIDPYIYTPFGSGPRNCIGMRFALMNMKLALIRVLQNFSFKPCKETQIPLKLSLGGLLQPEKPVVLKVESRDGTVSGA

SMILES: c1ccc2c(c1)ncn2-c1ccc(Nc2ccncc2)cc1 [Compound 1a]
Kd [1]: 290 ± 55 nM
IC50 (human CYP17A1 [2]): 8000 nM and 8060 nM
Antiproliferative response in PC3 cells (growth rate inhibition, in words) (PC3 cells): cytotoxic

SMILES: C[C@]12CC[C@H](O)CC1=CC[C@@H]1[C@@H]2CC[C@]2(C)C(c3cccnc3)=CC[C@@H]12 [Abiraterone]
IC50 (human CYP17A1 [3]): 80 nM
Kd [4]: < 100 nM
Antiproliferative response in PC3 cells (growth rate inhibition, in words) (PC3 cells): low antiproliferative activity

SMILES: C[C@]12CC[C@H](O)CC1=CC[C@@H]1[C@@H]2CC[C@]2(C)C(n3cnc4ccccc43)=CC[C@@H]12 [Galeterone]
IC50 (human CYP17A1 [3]): 130 nM
Kd [4]: < 100 nM

SMILES: c1cncc(Nc2ccc(-n3cnc4ccccc43)cc2)c1 [Compound 1c]
Toxicity to non-cancerous cells (BJ hTERT fibroblasts) (BJ hTERT fibroblasts): non-toxicity
Kd [1]: 96 ± 22 nM
IC50 (CYP2D6): > 10000 nM
IC50 (human CYP3A4): > 10000 nM
IC50 (cytochrome P450 21A2): 1500 ± 670 nM
Selectivity for CYP17A1 over CYP21A2 inhibition (cytochrome P450 21A2; ratio of IC50 values): two-fold
IC50 (human CYP17A1 [2]): 830 ± 190 nM
Antiproliferative response in PC3 cells (growth rate inhibition, in words) (PC3 cells): cytotoxic; also recorded: high cytotoxicity

Continued, in another order:

Kd [1]: 120 ± 34 nM
IC50 (CYP2D6): 2500 ± 600 nM
Fold weaker inhibition of CYP2D6 than of CYP17A1 (CYP2D6; ratio of IC50 values): 4.5 fold
IC50 (human CYP3A4): > 10000 nM
IC50 (cytochrome P450 21A2): 190 ± 30 nM
IC50 (human CYP17A1 [2]): 560 ± 100 nM
SMILES: c1ccc2c(c1)ccn2-c1ccc(Nc2ccncc2)cc1 [Compound 1e]
Growth rate inhibition value (GR) in DU145 cells (DU145 cells; 10 µM, 48 h): < 0.5
inhibition at 10 µM (DU145 cells; Homo sapiens, DU-145, 48 h, read-out: Growth rate inhibition in DU145 cells): > 50%

Kd [1]: 150 ± 37 nM
IC50 (human CYP17A1 [2]): 1760 ± 190 nM
SMILES: c1ccc(Nc2ccc(-n3cnc4ccccc43)cc2)cc1 [Compound 1d]

Kd [1]: 420 ± 70 nM
IC50 (human CYP17A1 [2]): > 10000 nM
SMILES: c1ccc(Nc2ccc(-n3cnc4ccccc43)cc2)nc1 [Compound 1b]
